Reference: patent publication US20220409631A1, “METHODS OF INDUCING OR ENHANCING FARNESOID X RECEPTOR (FXR)-MEDIATED TRANSCRIPTIONAL RESPONSE” (YALE UNIVERSITY, priority 2019, published 2022)
“Also recorded” adds a separate entry of the source. Like-named read-outs stand apart in the source and are kept apart here.

Experiments:
Type in all cases: cell-based
CYP7A1 = assay: RT-qPCR for FXR target genes in HepG2 cells: CYP7A1; conditions: concentration of about 35 μM to 45
Description: (§1) Real Time Quantitative PCR (RT-qPCR)—Real Time Quantitative PCR (RT-qPCR) for FXR target genes: RNA was extracted from NZZ compounds treated cells using the Roche High Pure RNA isolation kit. cDNA was then generated from RNA samples using Bio-rad iScript Advanced cDNA synthesis kit for RT-qPCR. qPCR was performed using primers as shown in the Table 1 and iTaq™ Universal SYBR® Green Supermix in CFX PCR machine (Bio-rad). Relative mRNA expression was calculated based on the change of the threshold cycle relative to the internal control, (3-actin, using a standard curve generated by purified PCR products.

ER-β = ER-β (Homo sapiens, UniProt Q92731); assay: Hormone receptor signaling pathway selectivity: ER-β; conditions: with E2
ER-β, sequence (Q92731 whole entry, species assumed): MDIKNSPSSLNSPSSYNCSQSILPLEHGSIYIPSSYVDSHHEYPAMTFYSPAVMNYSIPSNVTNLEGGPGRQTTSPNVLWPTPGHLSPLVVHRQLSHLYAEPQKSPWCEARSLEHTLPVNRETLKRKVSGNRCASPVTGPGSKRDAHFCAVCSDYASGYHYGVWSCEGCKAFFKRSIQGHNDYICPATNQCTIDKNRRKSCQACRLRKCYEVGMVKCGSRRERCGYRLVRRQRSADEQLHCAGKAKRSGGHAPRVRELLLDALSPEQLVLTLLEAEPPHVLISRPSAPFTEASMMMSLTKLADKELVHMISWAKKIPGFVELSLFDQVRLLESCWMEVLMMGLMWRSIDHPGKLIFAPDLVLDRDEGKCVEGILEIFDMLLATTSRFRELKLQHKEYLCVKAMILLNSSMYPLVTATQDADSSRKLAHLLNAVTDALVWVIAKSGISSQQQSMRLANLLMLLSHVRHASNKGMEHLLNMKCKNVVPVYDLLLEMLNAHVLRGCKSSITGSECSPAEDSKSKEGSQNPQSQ

BACS = assay: RT-qPCR for FXR target genes in HepG2 cells: BACS
Description: as §1

FXR = target: T1, FXR (Homo sapiens, UniProt Q96RI1); assay: FXR luciferase reporter assay in HepG2 reporter cells; conditions: for induction of FXR activity / FXR mediated transcriptional response: HepG2 FXR-luciferase reporter cells; for EC50: no ligand added, read-out: FXR (stimulation EC50)
T1 construct: HepG2 cells were stably transfected with either FXR reporter DNA; endogenous in cells; host or cells: HepG2 cells stably transfected with a 3x FXR response element PGL4.2 luciferase reporter
T1 sequence (Q96RI1 1-486): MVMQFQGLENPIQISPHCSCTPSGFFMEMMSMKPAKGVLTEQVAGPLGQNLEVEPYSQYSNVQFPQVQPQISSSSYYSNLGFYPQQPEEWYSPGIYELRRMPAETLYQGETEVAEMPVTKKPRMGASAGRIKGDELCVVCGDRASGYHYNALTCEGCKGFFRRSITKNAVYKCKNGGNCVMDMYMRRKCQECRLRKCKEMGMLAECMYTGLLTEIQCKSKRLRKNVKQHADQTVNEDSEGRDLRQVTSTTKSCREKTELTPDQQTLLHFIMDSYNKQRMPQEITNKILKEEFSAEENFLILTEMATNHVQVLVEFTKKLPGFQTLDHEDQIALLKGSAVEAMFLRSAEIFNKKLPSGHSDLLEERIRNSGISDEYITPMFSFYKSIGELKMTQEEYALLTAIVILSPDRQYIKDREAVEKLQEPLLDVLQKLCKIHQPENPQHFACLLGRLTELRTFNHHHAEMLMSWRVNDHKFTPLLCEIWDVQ
Description: FXR luciferase reporter cells—FXR luciferase reporter cells—HepG2 cancer cells were used in the screening study. HepG2 cells were stably transfected with either FXR reporter DNA in which 3 repeated response element ([…])(SEQ ID NO:2) was inserted in-PGL4.2 luciferase reporter plasmid or LXR reporter DNA in which 3 repeated response element ([…])(SEQ ID NO:3) was inserted in PGL4.2 luciferase reporter plasmid. Reporter cells were selected by puromycin (1 ug/mL) in RPMI-1640 medium with 10% FBS.
Luciferase assay—Reporter cells were treated with compounds at 0, 10, 20, 40, and […] for 24h in a 37° C.-CO2 incubator with or without chenodeoxycholic acid (CDCA) for FXR reporter cells or GW3965 for LXR reporter cells. Cells were lysed using luciferase lysis buffer after which luciferase buffer with luciferin was added to generate luminescence. Luminescence was recorded using a luminescence microplate reader.

ER-α = target: T2, ER-α (Homo sapiens, UniProt P03372); assay: Hormone receptor signaling pathway selectivity: ER-α mediated transcriptional response; conditions: with E2
T2 sequence (P03372 1-595): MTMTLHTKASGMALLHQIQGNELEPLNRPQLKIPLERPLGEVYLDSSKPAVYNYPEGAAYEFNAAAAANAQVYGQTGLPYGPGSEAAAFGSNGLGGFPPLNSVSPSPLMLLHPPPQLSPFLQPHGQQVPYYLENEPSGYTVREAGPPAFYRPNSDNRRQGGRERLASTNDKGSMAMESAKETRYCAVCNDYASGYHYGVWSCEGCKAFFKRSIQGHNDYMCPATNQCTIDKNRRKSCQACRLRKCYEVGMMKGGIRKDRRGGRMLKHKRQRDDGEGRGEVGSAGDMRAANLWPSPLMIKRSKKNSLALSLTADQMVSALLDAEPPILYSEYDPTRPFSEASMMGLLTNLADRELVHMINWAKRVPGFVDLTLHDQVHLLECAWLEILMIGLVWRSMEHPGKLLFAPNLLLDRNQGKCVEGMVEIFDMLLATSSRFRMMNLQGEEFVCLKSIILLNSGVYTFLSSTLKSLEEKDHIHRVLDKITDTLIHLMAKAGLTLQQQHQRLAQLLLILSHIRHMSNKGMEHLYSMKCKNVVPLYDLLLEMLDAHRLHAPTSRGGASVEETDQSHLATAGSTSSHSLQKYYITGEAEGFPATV

[1] = tested on: other hormone receptor signaling pathways; assay: Selectivity for different hormone receptor signaling pathways (panel)
VDR = target: T3, VDR (Homo sapiens, UniProt P11473); assay: Hormone receptor signaling pathway selectivity: VDRE (VDR); conditions: for IC50: with VD3; for EC50: biphasic model of action, read-out: EC50, stimulation of VDR activity
T3 sequence (P11473 1-427): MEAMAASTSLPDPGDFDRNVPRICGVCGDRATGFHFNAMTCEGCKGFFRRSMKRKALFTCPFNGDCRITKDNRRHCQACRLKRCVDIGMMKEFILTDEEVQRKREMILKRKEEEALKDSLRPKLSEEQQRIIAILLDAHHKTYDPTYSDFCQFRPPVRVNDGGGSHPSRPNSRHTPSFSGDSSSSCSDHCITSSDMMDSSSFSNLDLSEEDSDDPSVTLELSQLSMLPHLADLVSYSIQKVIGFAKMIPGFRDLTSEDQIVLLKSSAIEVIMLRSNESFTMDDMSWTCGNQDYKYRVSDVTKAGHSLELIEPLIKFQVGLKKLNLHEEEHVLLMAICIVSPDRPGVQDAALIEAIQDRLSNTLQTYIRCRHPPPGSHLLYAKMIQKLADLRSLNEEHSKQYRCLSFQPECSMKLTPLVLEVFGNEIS

PPARa = assay: RT-qPCR for FXR target genes in HepG2 cells: PPARa; conditions: concentration of about 75 μM to 85
Description: as §1

AR = target: T4, AR (Homo sapiens, UniProt P10275); assay: Hormone receptor signaling pathway selectivity: AR; conditions: with DHT
T4 sequence (P10275 1-920): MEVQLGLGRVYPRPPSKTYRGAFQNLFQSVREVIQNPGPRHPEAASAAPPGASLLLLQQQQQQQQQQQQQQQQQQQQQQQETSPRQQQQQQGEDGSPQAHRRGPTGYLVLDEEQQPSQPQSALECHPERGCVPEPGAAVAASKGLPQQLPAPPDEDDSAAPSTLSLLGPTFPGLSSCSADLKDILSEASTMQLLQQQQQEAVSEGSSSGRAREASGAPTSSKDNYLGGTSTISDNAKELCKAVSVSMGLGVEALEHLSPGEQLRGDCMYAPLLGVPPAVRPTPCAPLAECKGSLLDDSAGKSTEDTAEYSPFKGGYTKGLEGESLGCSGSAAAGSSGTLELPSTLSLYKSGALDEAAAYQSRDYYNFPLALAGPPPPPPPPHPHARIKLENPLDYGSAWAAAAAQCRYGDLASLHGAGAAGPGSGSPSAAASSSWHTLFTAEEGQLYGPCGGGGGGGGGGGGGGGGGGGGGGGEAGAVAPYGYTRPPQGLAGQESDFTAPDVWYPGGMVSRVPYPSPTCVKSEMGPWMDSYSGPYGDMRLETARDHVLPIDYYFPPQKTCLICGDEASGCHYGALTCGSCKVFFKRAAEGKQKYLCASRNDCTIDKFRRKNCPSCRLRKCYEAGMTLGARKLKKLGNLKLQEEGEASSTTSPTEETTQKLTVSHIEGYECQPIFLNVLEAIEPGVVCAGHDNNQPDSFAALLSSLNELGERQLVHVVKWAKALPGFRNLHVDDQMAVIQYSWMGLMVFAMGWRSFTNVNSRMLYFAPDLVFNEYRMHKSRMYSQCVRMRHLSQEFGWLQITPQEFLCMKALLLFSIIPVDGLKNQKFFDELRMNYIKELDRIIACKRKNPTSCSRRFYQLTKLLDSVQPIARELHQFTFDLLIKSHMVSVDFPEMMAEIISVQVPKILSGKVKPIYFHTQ

[2] = read-out: ER-β with ligand E2 (inhibition IC50)
[3] = read-out: ER-α with ligand E2 (inhibition IC50)
[4] = read-out: VDRE with ligand VD3 (inhibition IC50)
[5] = read-out: AR with ligand DHT (inhibition IC50)
[6] = read-out: IC50, inhibition of VD3 action on VDR
[7] = read-out: IC50, inhibition of DHT action on AR

Row | SMILES | inhibition of CYP7A1, stronger than by compound (II) or by CDCA (CYP7A1) | IC50 (ER-β; [2]) [µM] | BACS mRNA expression, fold lower than the CDCA induced BACS expression (BACS) | induction of FXR activity / FXR mediated transcriptional response (FXR) | EC50 (FXR) [µM] | IC50 (ER-α; [3]) [µM] | impact on other hormone receptor signaling pathways [1] | IC50 (VDR; [4]) [µM] | PPARa mRNA expression, fold higher than that induced by compound (II) (PPARa) | IC50 (AR; [5]) [µM] | IC50 (ER-α; read-out: IC50, inhibition of E2 triggered ERα mediated transcriptional response) [µM] | IC50 (ER-β; read-out: IC50, inhibition of E2 action on ERβ) [µM] | IC50 (VDR; [6]) [µM] | IC50 (AR; [7]) [µM] | EC50 (VDR) [µM]
1 | C=C(CC[C@@H](C)[C@H]1CC[C@H]2C3=C(C(=O)[C@H](O)[C@]12C)[C@@]1(C)CC[C@@H](O)[C@@H](C)[C@@H]1CC3=O)[C@@H](C)C(=O)O [compound (I)] | about 40% | > 80 | about 2 fold | act as agonists; also recorded: induce/enhance FXR activity | 25 | > 80 | no impact | > 80 | about 2 fold | > 80 |  |  |  |  | 
2 | C=C(CC[C@@H](C)[C@H]1CC[C@H]2C3=C(C(=O)[C@H](O)[C@]12C)[C@@]1(C)CC[C@@H](O)[C@@H](C)[C@@H]1CC3=O)[C@H](C)C(=O)O [compound (II)] |  | > 80 | about 2 fold | act as agonists; also recorded: induce/enhance FXR activity | 40 | > 80 | no impact | > 80 |  | > 80 |  |  |  |  | 
3 | C=C(CC[C@@H](C)[C@H]1CC[C@H]2C3=C(C(=O)C[C@]12C)[C@@]1(C)CCC(=O)[C@@H](C)[C@@H]1C[C@@H]3O)[C@H](C)C(=O)O [compound (III)] |  | > 80 |  |  | > 80 | > 80 |  | > 80 |  | > 80 |  |  |  |  | 
4 | C=C(CC[C@@H](C)[C@H]1CC[C@H]2C3=C(C(=O)C[C@]12C)[C@@]1(C)CCC(=O)[C@@H](C)[C@@H]1C[C@@H]3O)[C@@H](C)C(=O)O [compound (IV)] |  | > 80 |  |  | > 80 | 70 |  | > 80 |  | > 80 | ~80 |  |  |  | 
5 | C=C(CCC(C(=O)O)[C@H]1C[C@H](OC(C)=O)[C@@]2(C)C3=CC[C@H]4C(C)(C)[C@@H](O)CC[C@]4(C)C3=CC[C@]12C)C(C)C (some centres unmarked) [compound (IX)] |  | > 80 |  |  | > 80 | > 80 |  | > 80 |  | > 80 |  |  |  |  | 
6 | CC(C)=CCCC(C(=O)O)C1CC(O)C2(C)C3=CCC4C(C)(CCC(O)C4(C)C)C3=CCC12C (centres unmarked) [compound (V)] |  | > 80 |  |  | > 80 | > 80 |  | > 80 |  | > 80 |  |  |  |  | 
7 | C=C(CC[C@@H](C(=O)O)[C@H]1C[C@H](O)[C@@]2(C)C3=CC[C@H]4C(C)(C)C(O)CC[C@]4(C)C3=CC[C@]12C)C(C)C (some centres unmarked) [compound (VI)] |  | > 80 |  |  | > 80 | > 80 |  | > 80 |  | > 80 |  |  |  |  | 
8 | C=C(CC[C@@H](C)[C@H]1CC[C@H]2C3=C(C(=O)C[C@]12C)[C@@]1(C)CCC(=O)[C@@H](C)[C@@H]1CC3=O)[C@H](C)C(=O)O [compound (VII)] |  |  |  |  | > 80 | > 80 |  |  |  |  |  | 40 | 20 | 40 | 
9 | C=C(CC[C@@H](C)[C@H]1CC[C@H]2C3=C(C(=O)C[C@]12C)[C@@]1(C)CCC(=O)[C@@H](C)[C@@H]1CC3=O)[C@@H](C)C(=O)O [compound (VIII)] |  | > 80 |  |  | > 80 | > 80 |  |  |  |  |  |  | 25 | 25 | 
10 | C=C(CCC(C(=O)O)C1CCC2(C)C3=CCC4C(C)(CCC(O)C4(C)C)C3=CCC12C)C(C)C (centres unmarked) [compound (X)] |  | > 80 |  |  | > 80 | > 80 |  | > 80 |  | > 80 |  |  |  |  | 1.5
11 | C=C(CC[C@@H](C)[C@H]1CC[C@H]2C3=C(CC[C@]12C)[C@@]1(C)CC[C@@H](O)C(C)(C)[C@@H]1C[C@@H]3O)[C@@H](C)C(=O)O [compound (XI)] |  | > 80 |  |  | > 80 | > 80 |  | > 80 |  | > 80 |  |  |  |  | 
12 | C=C(CCC(C(=O)O)C1CCC2(C)C3=C(CCC12C)C1(C)CCC(O)C(C)(C)C1CC3)C(C)C (centres unmarked) [compound (XII)] |  | > 80 |  |  | > 80 | > 80 |  | > 80 |  | > 80 |  |  |  |  | 1.5
